Measured values: PubChem BioAssay AID248 (DTP/NCI, 2004)
Several values for one entry are separate records, joined by “and”; a condition that tells them apart may be missing. Equal values may be shown once. Inconclusive results and toxic doses are left out. Cut-off read from the data, not from the text of the source: active = T/C of 150% or more; inactive = T/C below 125%.

Tested on: L1210 leukemia ip in BDF1 mice, survival T/C
Assay: NCI In Vivo Anticancer Drug Screen. Data for tumor model L1210 Leukemia (intraperitoneal) in B6D2F1 (BDF1) mice
Settings: endpoint: mean survival time, higher = longer survival
Outline: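 Tumor was transplanted into mice, which were then dosed with test compound or vehicle alone. Survival was recorded for each group, and the treated figure was expressed relative to the control figure.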

[1] = dose: 200.0 mg/kg/injection, schedule: Q01DX001 (ip), vehicle: saline
[2] = dose: 400.0 mg/kg/injection, schedule: Q01DX001 (ip), vehicle: saline
[3] = dose: 100.0 mg/kg/injection, schedule: Q04DX003 (ip), vehicle: saline with Tween-80
[4] = dose: 200.0 mg/kg/injection, schedule: Q04DX003 (ip), vehicle: saline with Tween-80
[5] = dose: 400.0 mg/kg/injection, schedule: Q04DX003 (ip), vehicle: saline with Tween-80
[6] = dose: 100.0 mg/kg/injection, schedule: Q04DX003 (ip), vehicle: Klucel (hydroxypropylcellulose) (HPC)
[7] = dose: 200.0 mg/kg/injection, schedule: Q04DX003 (ip), vehicle: Klucel (hydroxypropylcellulose) (HPC)
[8] = dose: 400.0 mg/kg/injection, schedule: Q04DX003 (ip), vehicle: Klucel (hydroxypropylcellulose) (HPC)
[9] = dose: 100.0 mg/kg/injection, schedule: Q01DX001 (ip), vehicle: Klucel (hydroxypropylcellulose) (HPC)
[10] = dose: 200.0 mg/kg/injection, schedule: Q01DX001 (ip), vehicle: Klucel (hydroxypropylcellulose) (HPC)
[11] = dose: 400.0 mg/kg/injection, schedule: Q01DX001 (ip), vehicle: Klucel (hydroxypropylcellulose) (HPC)
[12] = dose: 100.0 mg/kg/injection, schedule: Q04DX002 (ip), vehicle: saline
[13] = dose: 100.0 mg/kg/injection, schedule: Q01DX001 (ip), vehicle: saline
[14] = dose: 100.0 mg/kg/injection, schedule: Q01DX001 (ip), vehicle: carboxymethylcellulose (CMC)
[15] = dose: 200.0 mg/kg/injection, schedule: Q01DX001 (ip), vehicle: carboxymethylcellulose (CMC)
[16] = dose: 400.0 mg/kg/injection, schedule: Q01DX001 (ip), vehicle: carboxymethylcellulose (CMC)
[17] = dose: 50.0 mg/kg/injection, schedule: Q01DX001 (ip), vehicle: saline
[18] = dose: 200.0 mg/kg/injection, schedule: Q01DX009 (ip), vehicle: saline

Measured: T/C

Nc1nc2nc(-c3ccccc3)nc(N)c2nc1-c1ccc(N(CCO)CCO)cc1
inactive: dose: 45.0 mg/kg/injection, schedule: Q01DX001 (ip), vehicle: saline 102 % of control | dose: 67.0 mg/kg/injection, schedule: Q01DX001 (ip), vehicle: saline 108 % of control | dose: 150.0 mg/kg/injection, schedule: Q01DX001 (ip), vehicle: saline 91 % of control | [1] 95 % of control | [2] 95 % of control

[Se]=P(C#Cc1ccccc1)(C#Cc1ccccc1)C#Cc1ccccc1
inactive: dose: 100.0 mg/kg/injection, schedule: Q01DX001 (ip), vehicle: saline with Tween-80 87 % of control | dose: 200.0 mg/kg/injection, schedule: Q01DX001 (ip), vehicle: saline with Tween-80 93 % of control | dose: 400.0 mg/kg/injection, schedule: Q01DX001 (ip), vehicle: saline with Tween-80 87 % of control

C(=C1/CCCc2ccccc21)/c1ccccn1
inactive: dose: 100.0 mg/kg/injection, schedule: Q01DX001 (ip), vehicle: other 98 % of control | dose: 200.0 mg/kg/injection, schedule: Q01DX001 (ip), vehicle: other 103 % of control | dose: 400.0 mg/kg/injection, schedule: Q01DX001 (ip), vehicle: other 90 % of control

COc1cc(C)c(OC)c(CCl)c1C
inactive: [3] 97 % of control | [4] 98 % of control | [5] 92 % of control

COc1ccc(Sc2ccccc2N)c([N+](=O)[O-])c1
inactive: [6] 100 % of control | [7] 97 % of control | [8] 92 % of control

CCOC(=O)C1(C(=O)OCC)CCC(OCC)N1C(=O)c1cc2c(cc1[N+](=O)[O-])OCO2 (stereo unspecified)
inactive: [6] 99 % of control | [7] 105 % of control | [8] 97 % of control

CCCCCCCC/C=C\CCCCCCCC(=O)OCCCCCCCC
inactive: [9] 97 % of control | dose: 100.0 mg/kg/injection, schedule: Q01DX009 (ip), vehicle: saline sonified 102 % of control | [10] 98 % of control | dose: 200.0 mg/kg/injection, schedule: Q01DX009 (ip), vehicle: saline sonified 98 % of control | [11] 92 % of control | dose: 400.0 mg/kg/injection, schedule: Q01DX009 (ip), vehicle: saline sonified 105 % of control

COc1ccc(C(=O)/C(Br)=C/C(=O)O)cc1
inactive: dose: 12.5 mg/kg/injection, schedule: Q01DX009 (ip), vehicle: saline 102 % of control and 103 % of control and 108 % of control | dose: 12.5 mg/kg/injection, schedule: Q04DX003 (ip), vehicle: saline 94 % of control | dose: 25.0 mg/kg/injection, schedule: Q01DX009 (ip), vehicle: saline 98 % of control and 108 % of control (2×) | dose: 25.0 mg/kg/injection, schedule: Q04DX002 (ip), vehicle: saline 101 % of control | dose: 25.0 mg/kg/injection, schedule: Q04DX003 (ip), vehicle: saline 94 % of control | dose: 50.0 mg/kg/injection, schedule: Q01DX009 (ip), vehicle: saline 95 % of control and 110 % of control (2×) | dose: 50.0 mg/kg/injection, schedule: Q04DX002 (ip), vehicle: saline 105 % of control | dose: 50.0 mg/kg/injection, schedule: Q04DX003 (ip), vehicle: saline 108 % of control | [12] 112 % of control and 92 % of control

Clc1ccc(-c2nnc3c4ccccc4ccn23)cc1
inactive: [13] 104 % of control | [1] 93 % of control | [2] 98 % of control

CCCCC(CCCC)(S(=O)(=O)CC)S(=O)(=O)CC
inactive: [14] 104 % of control | dose: 177.6 mg/kg/injection, schedule: Q01DX001 (ip), vehicle: carboxymethylcellulose (CMC) 94 % of control and 104 % of control | [15] 89 % of control | dose: 266.8 mg/kg/injection, schedule: Q01DX001 (ip), vehicle: carboxymethylcellulose (CMC) 98 % of control and 88 % of control | dose: 600.0 mg/kg/injection, schedule: Q01DX001 (ip), vehicle: carboxymethylcellulose (CMC) 98 % of control and 92 % of control

COc1ccc(C(=O)c2ccc(OC)c(OC)c2C(=O)O)cc1
inactive: dose: 100.0 mg/kg/injection, schedule: Q04DX003 (ip), vehicle: saline 106 % of control | dose: 200.0 mg/kg/injection, schedule: Q04DX003 (ip), vehicle: saline 114 % of control | dose: 400.0 mg/kg/injection, schedule: Q04DX003 (ip), vehicle: saline 103 % of control

NC(C(=O)O)C1SCCS1 (stereo unspecified)
inactive: [14] 102 % of control | [15] 102 % of control | [16] 98 % of control

O=S(=O)(O)c1ccc(CCCCCCCl)cc1
inactive: [12] 93 % of control | dose: 200.0 mg/kg/injection, schedule: Q04DX002 (ip), vehicle: saline 87 % of control

CN(C)c1c(F)c(F)c(N=Nc2ccccc2)c(F)c1F
inactive: [14] 98 % of control | [15] 114 % of control | [16] 98 % of control

Nc1ncnc2c1nnn2C1OC(CO)C(O)C1O (stereo unspecified)
inactive: dose: 42.0 mg/kg/injection, schedule: Q01DX015 (ip), vehicle: saline 104 % of control | [17] 107 % of control | dose: 63.0 mg/kg/injection, schedule: Q01DX015 (ip), vehicle: saline 98 % of control | dose: 72.0 mg/kg/injection, schedule: Q01DX015 (ip), vehicle: saline 117 % of control | [9] 97 % of control | [13] 109 % of control and 106 % of control | [6] 95 % of control | dose: 180.0 mg/kg/injection, schedule: Q01DX001 (ip), vehicle: Klucel (hydroxypropylcellulose) (HPC) 120 % of control | dose: 180.0 mg/kg/injection, schedule: Q01DX001 (ip), vehicle: saline 113 % of control | [10] 92 % of control | [1] 116 % of control and 109 % of control | [7] 95 % of control | dose: 270.0 mg/kg/injection, schedule: Q01DX001 (ip), vehicle: Klucel (hydroxypropylcellulose) (HPC) 122 % of control | [11] 122 % of control and 97 % of control | [2] 106 % of control | [8] 92 % of control

Cc1cc(N=[N+]([O-])c2ccc(N)c(C)c2)ccc1N
inactive: [13] 95 % of control | [1] 91 % of control | [18] 96 % of control | [2] 93 % of control | dose: 400.0 mg/kg/injection, schedule: Q01DX009 (ip), vehicle: saline 96 % of control

CCCCCCCCCCCCCCCCCC(=O)c1ccccc1
inactive: dose: 100.0 mg/kg/injection, schedule: Q01DX009 (ip), vehicle: Klucel (hydroxypropylcellulose) (HPC) 105 % of control | dose: 200.0 mg/kg/injection, schedule: Q01DX009 (ip), vehicle: Klucel (hydroxypropylcellulose) (HPC) 105 % of control | dose: 400.0 mg/kg/injection, schedule: Q01DX009 (ip), vehicle: Klucel (hydroxypropylcellulose) (HPC) 100 % of control

O=C(Nc1ccc(F)cc1)c1ccc([N+](=O)[O-])cc1
inactive: dose: 100.0 mg/kg/injection, schedule: Q04DX002 (ip), vehicle: Klucel (hydroxypropylcellulose) (HPC) 95 % of control | dose: 200.0 mg/kg/injection, schedule: Q04DX002 (ip), vehicle: Klucel (hydroxypropylcellulose) (HPC) 95 % of control | dose: 400.0 mg/kg/injection, schedule: Q04DX002 (ip), vehicle: Klucel (hydroxypropylcellulose) (HPC) 92 % of control

S=c1cc(-c2ccccc2)ss1
inactive: dose: 100.0 mg/kg/injection, schedule: Q01DX009 (ip), vehicle: saline with Tween-80 98 % of control | [3] 93 % of control and 102 % of control | dose: 200.0 mg/kg/injection, schedule: Q01DX009 (ip), vehicle: saline with Tween-80 89 % of control | [4] 91 % of control and 100 % of control | dose: 400.0 mg/kg/injection, schedule: Q01DX009 (ip), vehicle: saline with Tween-80 96 % of control | [5] 96 % of control and 91 % of control

CCC1(O)C(=O)OCc2c1cc1n(c2=O)CCC1 (stereo unspecified)
inactive: dose: 12.5 mg/kg/injection, schedule: Q01DX001 (ip), vehicle: saline 113 % of control | dose: 25.0 mg/kg/injection, schedule: Q01DX001 (ip), vehicle: saline 106 % of control and 110 % of control | [17] 102 % of control | [13] 101 % of control | [1] 98 % of control

NNC(=O)C1CC2C=CC1C2 (stereo unspecified)
inactive: dose: 100.0 mg/kg/injection, schedule: Q01DX009 (ip), vehicle: saline 100 % of control | [18] 103 % of control

O=C1OC(OC(=O)c2ccccc2)C(Br)=C1Br (stereo unspecified)
inactive: [6] 98 % of control | [7] 104 % of control
